From US20030068322A1, “Methods of antibody-directed enzyme-prodrug therapy” (IMMUNOMEDICS, INC., priority 1988, published 2003)

What was measured:
[1] = target: T1, human beta-D-glucuronidase (Homo sapiens, UniProt P08236); conditions: Arcamone, Cancer Res. 45:5995 (1985); cited from earlier work
T1 sequence (P08236 23-651): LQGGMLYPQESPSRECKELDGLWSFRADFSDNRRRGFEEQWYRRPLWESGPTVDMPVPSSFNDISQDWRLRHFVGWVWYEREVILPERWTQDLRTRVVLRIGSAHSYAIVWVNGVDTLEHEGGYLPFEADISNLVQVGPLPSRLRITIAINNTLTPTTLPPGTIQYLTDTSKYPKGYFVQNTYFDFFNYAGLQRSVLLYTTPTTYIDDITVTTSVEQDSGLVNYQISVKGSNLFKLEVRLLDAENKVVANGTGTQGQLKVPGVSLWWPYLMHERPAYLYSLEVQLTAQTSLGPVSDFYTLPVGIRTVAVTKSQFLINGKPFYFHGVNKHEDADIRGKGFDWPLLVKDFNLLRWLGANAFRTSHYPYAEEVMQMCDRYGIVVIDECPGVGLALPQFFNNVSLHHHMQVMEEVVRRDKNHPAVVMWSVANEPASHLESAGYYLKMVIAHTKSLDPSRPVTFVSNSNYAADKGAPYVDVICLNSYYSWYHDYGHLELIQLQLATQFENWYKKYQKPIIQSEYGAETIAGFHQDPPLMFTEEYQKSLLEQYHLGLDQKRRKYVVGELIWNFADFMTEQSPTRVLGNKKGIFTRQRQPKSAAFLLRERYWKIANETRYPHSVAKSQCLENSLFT

[2] = versus CPT-11; cited from earlier work
lymphoma = test: Therapy of lymphoma in a human patient; format: in vivo; conditions: 10 mg i.v. on each of 4 days after anti-lymphoma IgG-glucuronidase conjugate
Description: A human patient suffering from lymphoma is infused intravenously with a sterile, pyrogen-free PBS solution containing 5 mg of an anti-lymphoma IgG-glucuronidase conjugate prepared according to the example above, and labeled with I-131. […] The patient is then infused intravenously with a sterile, pyrogen-free PBS solution containing 10 mg of epirubicin glucuronide, prepared according to the example above, on each of the next 4 days.

Structure (SMILES): COc1cccc2c1C(=O)c1c(O)c3c(c(O)c1C2=O)C[C@@](O)(C(=O)CO)C[C@@H]3O[C@H]1C[C@H](N)[C@@H](O)[C@H](C)O1 [epirubicin]
- substrate for human beta-D-glucuronidase [1]: has been shown to be a substrate

Structure (SMILES): CCc1c2c(nc3ccc(O)cc13)-c1cc3c(c(=O)n1C2)COC(=O)[C@]3(O)CC [SN-38]
- toxicity relative to CPT-11 [2]: at least one hundred-fold more toxic

Structure (SMILES): COc1cccc2c1C(=O)c1c(O)c3c(c(O)c1C2=O)C[C@@](O)(C(=O)CO)C[C@@H]3O[C@H]1C[C@H](N)[C@@H](O[C@@H]2O[C@H](C(=O)O)[C@@H](O)[C@H](O)[C@H]2O)[C@H](C)O1 [epirubicin glucuronide]
- reduction in lymphoma by radioimmunodetection (lymphoma): significant reduction in the lymphoma
